From patent US12139520B2 (priority 2020, dated 2024) come the findings set out here.

Structures are written as SMILES. Numbered stars: 1 amine (or outer) side, 2 acyl side, 3 side chain; on linkers, the order of the positions; unused ones are H or OH. Bridge positions count the residues as written; N and C are the ends. Square brackets hold non-standard residues; d marks the D form. Peptide text beside a SMILES is read from it. * marks the point of attachment. C20 diacid = O=C(O)CCCCCCCCCCCCCCCCCCC(=O)*; γGlu = O=C(O)[C@H](CCC(=O)[*:2])N[*:1]; Hyp = O=C(O)[C@@H]1C[C@@H](O)CN1; Aib = CC(C)(N)C(=O)O

The target in test [1] is hAM1 receptor (Homo sapiens, UniProt O60895+Q16602). In words: cAMP assay for in vitro receptor activation, hAM1-R. In kind it is cell-based. The conditions noted are these: cAMP assay, hAM1 receptor; read-out: hAM1R EC50. An outline of the steps: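 A subcloned monoclonal line stably expressing hAM1 receptor is thawed and plated at 8000 cells/well. The assay buffer is DPBS with 0.05% casein and 0.5 mM IBMX, and receptor activation is followed by cAMP levels.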

In test [2] the target is T1, hAMY3 receptor (Homo sapiens, UniProt O60896+P30988).
T1 sequence (P30988 25-474): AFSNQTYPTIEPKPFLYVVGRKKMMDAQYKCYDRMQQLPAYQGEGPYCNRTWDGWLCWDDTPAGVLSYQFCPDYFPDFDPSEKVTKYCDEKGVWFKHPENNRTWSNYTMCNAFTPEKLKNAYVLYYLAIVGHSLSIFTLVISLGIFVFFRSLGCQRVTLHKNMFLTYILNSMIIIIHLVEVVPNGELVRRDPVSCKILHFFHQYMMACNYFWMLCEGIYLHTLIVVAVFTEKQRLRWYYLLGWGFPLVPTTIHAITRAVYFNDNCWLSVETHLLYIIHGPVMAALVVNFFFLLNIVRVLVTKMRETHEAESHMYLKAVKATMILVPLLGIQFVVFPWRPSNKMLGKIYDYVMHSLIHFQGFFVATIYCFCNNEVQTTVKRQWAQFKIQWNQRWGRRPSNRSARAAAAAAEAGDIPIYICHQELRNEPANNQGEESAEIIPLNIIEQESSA
T1 sequence (O60896 24-148 partner): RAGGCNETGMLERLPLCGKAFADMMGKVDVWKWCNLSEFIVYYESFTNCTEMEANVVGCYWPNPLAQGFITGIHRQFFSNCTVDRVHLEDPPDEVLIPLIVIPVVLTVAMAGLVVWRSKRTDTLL
In words: cAMP assay for in vitro receptor activation, hAMY3-R. The format is cell-based. The following applies: cAMP assay, hAMY3 receptor; read-out: hAMY3R EC50. An outline of the steps: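 Read-out is TR-FRET cAMP signal, recorded one hour after reagent addition, following 30 min room-temperature stimulation of stable hAMY3 cells with graded compound doses in casein/IBMX (0.5 mM) buffer.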
In general terms: Cyclic AMP is a second messenger, typically raised through Gs and lowered through Gi signalling.

hAM1 receptor, sequence (Q16602 23-461): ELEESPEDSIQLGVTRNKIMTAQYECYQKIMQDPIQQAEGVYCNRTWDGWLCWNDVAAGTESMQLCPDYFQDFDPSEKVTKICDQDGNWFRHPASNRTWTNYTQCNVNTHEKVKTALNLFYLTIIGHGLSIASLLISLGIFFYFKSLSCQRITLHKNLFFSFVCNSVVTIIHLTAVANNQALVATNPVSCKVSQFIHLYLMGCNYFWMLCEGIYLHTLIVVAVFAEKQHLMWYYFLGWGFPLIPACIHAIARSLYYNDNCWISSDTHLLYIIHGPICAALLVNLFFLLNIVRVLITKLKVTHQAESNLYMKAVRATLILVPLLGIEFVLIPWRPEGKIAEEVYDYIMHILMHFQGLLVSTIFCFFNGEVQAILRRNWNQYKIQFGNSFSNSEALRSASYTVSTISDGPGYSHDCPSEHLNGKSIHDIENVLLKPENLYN
hAM1 receptor, sequence (O60895 43-175 partner): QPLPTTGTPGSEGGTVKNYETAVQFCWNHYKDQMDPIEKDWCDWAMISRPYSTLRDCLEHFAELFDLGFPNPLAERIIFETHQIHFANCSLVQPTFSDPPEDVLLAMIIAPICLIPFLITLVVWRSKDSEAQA

As a reminder, the EC50 is the concentration needed to bring the measured effect to its halfway point. `CC[C@H](C)[C@H](NC(=O)[C@H](CCC(N)=O)NC(=O)[C@H](Cc1c[nH]cn1)NC(=O)[C@H](C)NC(=O)[C@H](CC(C)C)NC(=O)[C@H](CCCNC(=N)N)NC(=O)[C@H](CCC(N)=O)NC(=O)[C@@H](NC(=O)[C@@H](NC(=O)[C@@H]1CSSC[C@H](NC(=O)[C@H](CCCCN)NC(=O)CC[C@H](NC(=O)CCCCCCCCCCCCCCCCCCC(=O)O)C(=O)O)C(=O)N[C@@H](CC(N)=O)C(=O)N[C@@H]([C@@H](C)O)C(=O)NC(C)(C)C(=O)N[C@@H]([C@@H](C)O)C(=O)N1)[C@@H](C)O)C(C)C)C(=O)N[C@@H](Cc1ccc(O)cc1)C(=O)N[C@@H](CCC(N)=O)C(=O)N[C@@H](Cc1ccccc1)C(=O)N[C@H](C(=O)N[C@@H](CC(=O)O)C(=O)N[C@@H](CCCCN)C(=O)N[C@@H](CC(=O)O)C(=O)N[C@@H](CCCCN)C(=O)N[C@@H](CC(=O)O)C(=O)N[C@@H](CC(N)=O)C(=O)N[C@H](C(=O)N[C@@H](C)C(=O)N1CCC[C@H]1C(=O)N1CCC[C@H]1C(=O)N[C@H](C(=O)N[C@@H](CC(N)=O)C(=O)N[C@H](C(=O)NCC(=O)N[C@@H](CO)C(=O)N[C@@H](CC(N)=O)C(=O)NCC(=O)N1C[C@H](O)C[C@H]1C(N)=O)C(C)C)[C@@H](C)O)C(C)C)[C@@H](C)O` [compound 119] ({C20 diacid-γGlu}-KCNT[Aib]TCTVQRLAHQIYQFTDKDKDNVAPPTNVGSNG[Hyp]-NH2; disulfide 2-7): the EC50 in test [1] is more than 5000 nM; in test [2] it was 0.024 nM.
For `CC[C@H](C)[C@H](NC(=O)[C@H](CCC(N)=O)NC(=O)[C@H](Cc1c[nH]cn1)NC(=O)[C@H](C)NC(=O)[C@H](CC(C)C)NC(=O)[C@H](CCCNC(=N)N)NC(=O)[C@H](CCC(N)=O)NC(=O)[C@@H](NC(=O)[C@@H](NC(=O)[C@@H]1CSSC[C@H](NC(=O)[C@H](CCCCN)NC(=O)CC[C@H](NC(=O)CCCCCCCCCCCCCCCCCCC(=O)O)C(=O)O)C(=O)N[C@@H](CC(N)=O)C(=O)N[C@@H]([C@@H](C)O)C(=O)N[C@@H](C)C(=O)N[C@@H]([C@@H](C)O)C(=O)N1)[C@@H](C)O)C(C)C)C(=O)N[C@@H](Cc1ccc(O)cc1)C(=O)N[C@@H](CCC(N)=O)C(=O)N[C@@H](Cc1ccccc1)C(=O)N[C@H](C(=O)N[C@@H](CC(=O)O)C(=O)N[C@@H](CCCCN)C(=O)N[C@@H](CC(=O)O)C(=O)N[C@@H](CCCCN)C(=O)N[C@@H](CC(=O)O)C(=O)N[C@@H](CC(N)=O)C(=O)N[C@H](C(=O)N[C@@H](C)C(=O)N1CCC[C@H]1C(=O)N1CCC[C@H]1C(=O)N[C@H](C(=O)N[C@@H](CC(N)=O)C(=O)N[C@H](C(=O)NCC(=O)N[C@@H](CO)C(=O)N[C@@H](CC(N)=O)C(=O)NCC(=O)N1C[C@H](O)C[C@H]1C(N)=O)C(C)C)[C@@H](C)O)C(C)C)[C@@H](C)O` [compound 77] ({C20 diacid-γGlu}-KCNTATCTVQRLAHQIYQFTDKDKDNVAPPTNVGSNG[Hyp]-NH2; disulfide 2-7) the same measures were more than 5000 nM and 0.014 nM.
For `CC[C@H](C)[C@H](NC(=O)[C@H](CCC(N)=O)NC(=O)[C@H](Cc1c[nH]cn1)NC(=O)[C@H](C)NC(=O)[C@H](CC(C)C)NC(=O)[C@H](CCCNC(=N)N)NC(=O)[C@H](CC(=O)O)NC(=O)[C@@H](NC(=O)[C@@H](NC(=O)[C@@H]1CSSC[C@H](NC(=O)[C@H](CCCCN)NC(=O)CC[C@H](NC(=O)CCCCCCCCCCCCCCCCCCC(=O)O)C(=O)O)C(=O)N[C@@H](CC(N)=O)C(=O)N[C@@H]([C@@H](C)O)C(=O)N[C@@H](C)C(=O)N[C@@H]([C@@H](C)O)C(=O)N1)[C@@H](C)O)C(C)C)C(=O)N[C@@H](C)C(=O)N[C@@H](CCC(N)=O)C(=O)N[C@@H](Cc1ccccc1)C(=O)N[C@H](C(=O)N[C@@H](CC(=O)O)C(=O)N[C@@H](CCCCN)C(=O)N[C@@H](CC(=O)O)C(=O)N[C@@H](CCCCN)C(=O)N[C@@H](CC(=O)O)C(=O)N1CCC[C@H]1C(=O)N[C@H](C(=O)N[C@@H](C)C(=O)N1CCC[C@H]1C(=O)N1CCC[C@H]1C(=O)N[C@H](C(=O)N[C@@H](CC(N)=O)C(=O)N[C@H](C(=O)NCC(=O)N[C@@H](CO)C(=O)N[C@@H](CC(N)=O)C(=O)NCC(=O)N1C[C@H](O)C[C@H]1C(N)=O)C(C)C)[C@@H](C)O)C(C)C)[C@@H](C)O` [compound 130] ({C20 diacid-γGlu}-KCNTATCTVDRLAHQIAQFTDKDKDPVAPPTNVGSNG[Hyp]-NH2; disulfide 2-7), the EC50 in test [1] was more than 5000 nM; in test [2] it was 0.03 nM.
Consider `CC[C@H](C)[C@H](NC(=O)[C@H](CCC(N)=O)NC(=O)[C@H](CCC(=O)O)NC(=O)[C@H](C)NC(=O)[C@H](CC(C)C)NC(=O)[C@H](CCCNC(=N)N)NC(=O)[C@H](CCC(N)=O)NC(=O)[C@@H](NC(=O)[C@@H](NC(=O)[C@@H]1CSSC[C@H](NC(=O)[C@H](CCCCN)NC(=O)CC[C@H](NC(=O)CCCCCCCCCCCCCCCCCCC(=O)O)C(=O)O)C(=O)N[C@@H](CC(N)=O)C(=O)N[C@@H]([C@@H](C)O)C(=O)N[C@@H](C)C(=O)N[C@@H]([C@@H](C)O)C(=O)N1)[C@@H](C)O)C(C)C)C(=O)N[C@@H](Cc1ccc(O)cc1)C(=O)N[C@@H](CCC(N)=O)C(=O)N[C@@H](Cc1ccccc1)C(=O)N[C@H](C(=O)N[C@@H](CC(=O)O)C(=O)N[C@@H](CCCCN)C(=O)N[C@@H](CC(=O)O)C(=O)N[C@@H](CCCCN)C(=O)N[C@@H](CC(=O)O)C(=O)N[C@@H](CC(N)=O)C(=O)N[C@H](C(=O)N[C@@H](C)C(=O)N1CCC[C@H]1C(=O)N1CCC[C@H]1C(=O)N[C@H](C(=O)N[C@@H](CC(N)=O)C(=O)N[C@H](C(=O)NCC(=O)N[C@@H](CO)C(=O)N[C@@H](CC(N)=O)C(=O)N[C@H](C(=O)N1C[C@H](O)C[C@H]1C(N)=O)[C@@H](C)O)C(C)C)[C@@H](C)O)C(C)C)[C@@H](C)O` [compound 96] ({C20 diacid-γGlu}-KCNTATCTVQRLAEQIYQFTDKDKDNVAPPTNVGSNT[Hyp]-NH2; disulfide 2-7), for which the EC50 was more than 5000 nM in test [1] and 0.016 nM in test [2].
For `CC[C@H](C)[C@H](NC(=O)[C@H](CCC(N)=O)NC(=O)[C@H](Cc1c[nH]cn1)NC(=O)[C@H](C)NC(=O)[C@H](CC(C)C)NC(=O)[C@H](CCCNC(=N)N)NC(=O)[C@H](CCC(N)=O)NC(=O)[C@@H](NC(=O)[C@@H](NC(=O)[C@@H]1CSSC[C@H](NC(=O)[C@H](CCCCN)NC(=O)CC[C@H](NC(=O)CCCCCCCCCCCCCCCCCCC(=O)O)C(=O)O)C(=O)N[C@@H](CC(N)=O)C(=O)N[C@@H]([C@@H](C)O)C(=O)N[C@@H](C)C(=O)N[C@@H]([C@@H](C)O)C(=O)N1)[C@@H](C)O)C(C)C)C(=O)N[C@@H](C)C(=O)N[C@@H](CCC(N)=O)C(=O)N[C@@H](Cc1ccccc1)C(=O)N[C@H](C(=O)N[C@@H](CC(N)=O)C(=O)N[C@@H](CCCCN)C(=O)N[C@@H](CC(=O)O)C(=O)N[C@@H](CCCCN)C(=O)N[C@@H](CC(=O)O)C(=O)N[C@@H](CC(N)=O)C(=O)N[C@H](C(=O)N[C@@H](C)C(=O)N1CCC[C@H]1C(=O)N1CCC[C@H]1C(=O)N[C@H](C(=O)N[C@@H](CC(N)=O)C(=O)N[C@H](C(=O)NCC(=O)N[C@@H](CO)C(=O)N[C@@H](CC(N)=O)C(=O)NCC(=O)N1C[C@H](O)C[C@H]1C(N)=O)C(C)C)[C@@H](C)O)C(C)C)[C@@H](C)O` [compound 95] ({C20 diacid-γGlu}-KCNTATCTVQRLAHQIAQFTNKDKDNVAPPTNVGSNG[Hyp]-NH2; disulfide 2-7) the same measures were more than 5000 nM and 0.016 nM.
